These results are taken from ChEMBL document CHEMBL4265987, “Identification of inhibitors of the E. coli chaperone SurA using in silico and in vitro techniques” (Bioorg Med Chem Lett, 2018).

A short description of experiment [1]: Binding affinity to Rhodamine-WEYIPNV up to 3 uM by fluorescence anisotropy. For orientation: Polarisation of emitted light reports the rotation of a fluorescent probe.
Experiment [2] has as its target T1, Chaperone SurA (Escherichia coli (strain K12), UniProt P0ABZ6).
T1 sequence (P0ABZ6 whole entry): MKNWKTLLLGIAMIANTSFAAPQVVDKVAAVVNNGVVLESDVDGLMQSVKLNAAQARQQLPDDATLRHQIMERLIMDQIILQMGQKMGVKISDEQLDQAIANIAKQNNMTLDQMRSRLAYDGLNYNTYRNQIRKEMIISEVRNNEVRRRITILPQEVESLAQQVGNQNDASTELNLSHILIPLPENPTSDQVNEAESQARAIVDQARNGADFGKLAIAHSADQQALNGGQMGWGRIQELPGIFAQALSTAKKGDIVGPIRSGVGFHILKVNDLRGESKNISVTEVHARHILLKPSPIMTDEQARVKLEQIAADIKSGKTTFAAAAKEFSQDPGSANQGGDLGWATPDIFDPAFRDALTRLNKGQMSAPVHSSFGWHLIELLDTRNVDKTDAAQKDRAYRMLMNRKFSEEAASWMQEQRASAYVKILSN
Kind of experiment: Inhibition of rhodamine-WEYIPNV binding to Escherichia coli SurA by fluorescence anisotropy.

In experiment [3] the target is T2, Chaperone SurA (Escherichia coli (strain K12)) (UniProt P0ABZ6).
T2 sequence (whole entry): T1 sequence (P0ABZ6 whole entry)
The experiment in a line: Inhibition of rhodamine-WEYIPNV binding to Escherichia coli SurA up to 2.5 uM by fluorescence anisotropy.

The target in experiment [4] is T2, Chaperone SurA (Escherichia coli (strain K12)). Kind of experiment: Inhibition of rhodamine-WEYIPNV binding to Escherichia coli SurA up to 2 uM by fluorescence anisotropy.
Experiment [5] shares this target. The settings on record: up to 3 µM.
Description: Inhibition of rhodamine-WEYIPNV binding to Escherichia coli SurA up to 3 uM by fluorescence anisotropy
Experiment [6] has the same target. Kind of experiment: Inhibition of rhodamine-WEYIPNV binding to Escherichia coli SurA up to 1.5 uM by fluorescence anisotropy.
The target of experiment [7] is T1, Chaperone SurA. The experiment in a line: Inhibition of rhodamine-WEYIPNV binding to Escherichia coli SurA in presence of 0.01% Triton-X-100 by fluorescence anisotropy.
Experiment [8] deals with T2, Chaperone SurA (Escherichia coli (strain K12)). Kind of experiment: Binding affinity to Escherichia coli SurA at 5 nM by fluorescence anisotropy.

Usually IC50 stands for the midpoint of a concentration-inhibition curve.

The source made the active and inactive calls. No cut-off for these calls is given here. Peptide text beside a SMILES is read from it.

Regarding `O=C(N[C@@H](Cc1ccccc1)C(=O)O)OCC1c2ccccc2-c2ccccc21`, the outcome in experiment [1] was inactive. Besides, the IC50 in experiment [2] is 152 µM.

In the case of `C[C@H](NC(=O)OCC1c2ccccc2-c2ccccc21)C(=O)O`, in experiment [3], the inhibition result was “inactive”.

Turning to `O=C(N[C@@H](Cc1c[nH]c2ccccc12)C(=O)O)OCC1c2ccccc2-c2ccccc21`, the outcome in experiment [1] was inactive. In experiment [2], the half-maximal inhibitory concentration (IC50) was found to be 23.3 µM.

As for `CC[C@H](C)[C@H](NC(=O)OCC1c2ccccc2-c2ccccc21)C(=O)O`, the inhibition entry in experiment [3] was “inactive”.

Take `O=C(N[C@@H](Cc1ccc(O)cc1)C(=O)O)OCC1c2ccccc2-c2ccccc21`: the inhibition result in experiment [3] is “inactive”.

Turning to `CC[C@H](C)[C@H](NC(=O)[C@H](Cc1ccc(O)cc1)NC(=O)[C@H](CCC(=O)O)NC(=O)[C@@H](N)Cc1c[nH]c2ccccc12)C(=O)N1CCC[C@H]1C(=O)N[C@@H](CC(N)=O)C(=O)N[C@H](C(=O)O)C(C)C`, the IC50 in experiment [2] amounted to 2.66 µM.

As to `O=C(OCC1c2ccccc2-c2ccccc21)N1CCC[C@H]1C(=O)n1nnc2ccccc21`, the inhibition entry in experiment [4] is “inactive”.

As to H-KQAGNV-OH, the inhibition result in experiment [5] was “inactive”.

With `c1cc(C2=N[C@H]3c4ccccc4C[C@H]3O2)nc(C2=N[C@H]3c4ccccc4C[C@H]3O2)c1`, in experiment [6], the inhibition result is “inactive”.

Take `O=C1OC2(c3ccc(O)cc3Oc3cc(O)ccc32)c2ccc(N3C(=O)C=CC3=O)cc21`: the inhibition result in experiment [3] was “inactive”.

Regarding `CN1/C(=C\C=C2/CCC(/C=C/C3=[N+](C)c4ccccc4C3(C)C)=C2Cl)C(C)(C)c2ccccc21`, the inhibition result in experiment [4] is “inactive”.

In the case of `O=C(O)CCNC(=O)OCC1c2ccccc2-c2ccccc21`, the inhibition entry in experiment [3] is “inactive”.

As for `N[C@@H](Cc1cnc[nH]1)C(=O)NCC(=O)NCC(=O)O` (H-His-Gly-Gly-OH), the inhibition entry in experiment [5] is “inactive”.

With `O=C(N[C@H](Cc1ccc2ccccc2n1)C(=O)O)OCC1c2ccccc2-c2ccccc21`, the outcome in experiment [1] was inactive. Further, the IC50 was found to be 37.4 µM in experiment [7] and 57 µM in experiment [2].

For `O=C1OC2(c3ccc(O)cc3Oc3cc(O)ccc32)c2ccccc21`, the outcome in experiment [8] was Active.
